# From patent US20240083861A1, “HSD17B13 INHIBITORS AND USES THEREOF” (FL2022-001, Inc., priority 2020, published 2024)
# Biological target: T1, Recombinant human HSD17B13 enzyme (Homo sapiens, UniProt Q7Z5P4)
# T1 sequence (Q7Z5P4 20-300): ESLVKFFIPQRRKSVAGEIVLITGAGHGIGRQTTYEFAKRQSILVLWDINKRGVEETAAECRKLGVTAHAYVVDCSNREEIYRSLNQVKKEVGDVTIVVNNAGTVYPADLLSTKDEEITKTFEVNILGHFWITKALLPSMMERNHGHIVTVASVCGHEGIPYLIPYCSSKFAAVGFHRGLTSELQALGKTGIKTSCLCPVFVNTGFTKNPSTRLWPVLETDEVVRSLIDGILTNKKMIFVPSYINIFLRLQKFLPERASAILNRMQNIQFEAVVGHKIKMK
# Experiment: HSD17b13 NAD(P)H-Glo biochemical assay
# Settings: 50 uM estradiol, 1 mM NAD+, NAD(P)H-Glo luminescence; read-out: HSD17β13 IC50
# In short: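 Luminescent NAD(P)H-Glo read-out, taken after 1 hour at RT, measured cofactor reduction. Substrate and cofactor were estradiol at 50 uM and NAD+ at 1 mM final, reacted with the recombinant human enzyme for 3 hours at 37° C in 20 mM Tris pH7.4, 0.002% Tween-20, 0.02% BSA. Compound was pre-incubated with enzyme for 20 minutes at RT.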
row,Structure (SMILES),IC50
1,"O=C(NC1(CO)CCC1)c1ccc2oc(-c3cc(C(F)(F)F)c(F)c(O)c3F)nc2c1 [Compound 1.28, 2-(2,4-Difluoro-3-hydroxy-5-(trifluoromethyl)phenyl)-N-(1-(hydroxymethyl)cyclobutyl)benzo[d] oxazole-5-carboxamide]",0.1 to 1 µM
2,"COC1CCN(c2cc3c(cn2)c(-c2cc(C(F)(F)F)c(F)c(O)c2F)nn3C)C2(CCC2)C1 (stereo not shown) [Compound 9.75, 2,6-Difluoro-3-(6-(8-methoxy-5-azaspiro[3.5]nonan-5-yl)-1-methyl-1H-pyrazolo[4,3-c]pyridin-3-yl)-5-(trifluoromethyl)phenol]",< 0.1 µM
3,"Cn1nc(-c2cc(C(F)(F)F)c(F)c(O)c2F)c2ccc(N3CCN(S(C)(=O)=O)CC3)nc21 [Compound 12.02, 2,6-Difluoro-3-(1-methyl-6-(4-(methylsulfonyl)piperazin-1-yl)-1H-pyrazolo[3,4-b]pyridin-3-yl)-5-(trifluoromethyl)phenol]",< 0.1 µM
4,"Cn1nc(-c2cc(C(F)(F)F)c(F)c(O)c2F)c2cnc(NC34CC(C3)C4)nc21 [Compound 9.15, 3-(6-(Bicyclo[1.1.1]pentan-1-ylamino)-1-methyl-1H-pyrazolo[3,4-d]pyrimidin-3-yl)-2,6-difluoro-5-(trifluoromethyl)phenol]",< 0.1 µM
5,"CC(C)n1nc(-c2cc(C(F)(F)F)c(F)c(O)c2F)c2cnc(N3CCOCC34CC4)cc21 [Compound 9.34, 2,6-Difluoro-3-(1-isopropyl-6-(7-oxa-4-azaspiro[2.5]octan-4-yl)-1H-pyrazolo[4,3-c]pyridin-3-yl)-5-(trifluoromethyl)phenol]",< 0.1 µM
6,"Cc1c(N(C)C2CCOCC2)ncc2c(-c3cc(C(F)(F)F)c(F)c(O)c3F)nn(C)c12 [Compound 9.130, 3-(1,7-Dimethyl-6-(methyl(tetrahydro-2H-pyran-4-yl)amino)-1H-pyrazolo[4,3-c]pyridin-3-yl)-2,6-difluoro-5-(trifluoromethyl)phenol]",0.1 to 1 µM
7,"CN(c1ncc2c(-c3cc(C(F)(F)F)c(F)c(O)c3F)nn(C)c2n1)C1CCNCC1 [Compound 19, 2,6-Difluoro-3-(1-methyl-6-(methyl(piperidin-4-yl)amino)-1H-pyrazolo[3,4-d]pyrimidin-3-y1)-5-(trifluoromethyl)phenol]",0.1 to 1 µM
8,"Cn1nc(-c2cc(C(F)(F)F)c(F)c(O)c2F)c2cnc(N3CCN(C(=O)O)C(=O)C3)cc21 [Compound 9.79, 4-(3-(2,4-Difluoro-3-hydroxy-5-(trifluoromethyl)phenyl)-1-methyl-1H-pyrazolo[4,3-c]pyridin-6-yl)-2-oxopiperazine-1-carboxylic acid]",1 to 30 µM
9,"Cn1nc(-c2cc(C(F)(F)F)c(F)c(O)c2F)c2cnc(N3CCOC(C)(C#N)C3)cc21 (stereo not shown) [Compound 9.89, 4-(3-(2,4-Difluoro-3-hydroxy-5-(trifluoromethyl)phenyl)-1-methyl-1H-pyrazolo[4,3-c]pyridin-6-yl)-2-methylmorpholine-2-carbonitrile]",< 0.1 µM
10,"CS(=O)(=O)N1CCN(c2cc3nc(-c4cc(O)c(F)c(F)c4)oc3cc2Cl)CC1 [Compound 5, 5-(6-Chloro-5-(4-(methylsulfonyl)piperazin-1-yl)benzo[d]oxazol-2-yl)-2,3-difluorophenol]",0.1 to 1 µM
11,"CC(C)C1COCCN1c1cc2c(cn1)c(-c1cc(C(F)(F)F)c(F)c(O)c1F)nn2C (stereo not shown) [Compound 9.52, 2,6-Difluoro-3-(6-(3-isopropylmorpholino)-1-methyl-1H-pyrazolo[4,3-c]pyridin-3-yl)-5-(trifluoromethyl)phenol]",< 0.1 µM
12,"Cn1nc(-c2cc(C(F)(F)F)c(F)c(O)c2F)c2cnc(N3CCN(S(C)(=O)=O)CC34CC4)nc21 [Compound 9.122, 2,6-Difluoro-3-(1-methyl-6-(7-(methylsulfonyl)-4,7-diazaspiro[2.5]octan-4-yl)-1H-pyrazolo[3,4-d]pyrimidin-3-yl)-5-(trifluoromethyl)phenol]",< 0.1 µM
13,"Cn1nc(-c2cc(C(F)(F)F)c(F)c(O)c2F)c2cnc(N3CCS(=O)(=O)CC34CCC4)cc21 [Compound 9.124, 5-(3-(2,4-Difluoro-3-hydroxy-5-(trifluoromethyl)phenyl)-1-methyl-1H-pyrazolo[4,3-c]pyridin-6-yl)-8-thia-5-azaspiro[3.5]nonane 8,8-dioxide]",< 0.1 µM
14,"Oc1c(F)c(-c2nn(C3CCCOC3)c3nc(N4CCOCC45CC5)ccc23)cc(C(F)(F)F)c1F (stereo not shown) [Compound 9.71, 3-(6-(7-Oxa-4-azaspiro[2.5]octan-4-yl)-1-(tetrahydro-2H-pyran-3-yl)-1H-pyrazolo[3,4-b]pyridin-3-yl)-2,6-difluoro-5-(trifluoromethyl)phenol]",0.1 to 1 µM
15,"Cn1nc(-c2cc(C(F)(F)F)cc(O)c2F)c2cnc(N3CCN(S(C)(=O)=O)CC3)cc21 [Compound 9.01, 2-Fluoro-3-(1-methyl-6-(4-(methylsulfonyl)piperazin-1-yl)-1H-pyrazolo[4,3-c]pyridin-3-yl)-5-(trifluoromethyl)phenol]",< 0.1 µM
16,"Cn1nc(-c2cc(C(F)(F)F)c(F)c(O)c2F)c2cnc(N3CC4(COC4)C3)cc21 [Compound 9.12, 2,6-Difluoro-3-(1-methyl-6-(2-oxa-6-azaspiro[3.3]heptan-6-yl)-1H-pyrazolo[4,3-c]pyridin-3-yl)-5-(trifluoromethyl)phenol]",< 0.1 µM
17,"CO[C@H]1C[C@@H](N(C)c2cc3c(cn2)c(-c2cc(C(F)(F)F)c(F)c(O)c2F)nn3C)C1 [Compound 9.36, 2,6-Difluoro-3-(6-((cis-3-methoxycyclobutyl)(methyl)amino)-1-methyl-1H-pyrazolo[4,3-c]pyridin-3-yl)-5-(trifluoromethyl)phenol]",< 0.1 µM
18,"CC1(NC(=O)c2ccc3oc(-c4cc(C(F)(F)F)c(F)c(O)c4F)nc3c2)CCC1 [Compound 1.23, 2-(2,4-Difluoro-3-hydroxy-5-(trifluoromethyl)phenyl)-N-(1-methylcyclobutyl)benzo[d]oxazole-5-carboxamide]",< 0.1 µM
19,"CCn1nc(-c2cc(C(F)(F)F)c(F)c(O)c2F)c2cnc(N3CCOCC34CC4)cc21 [Compound 9.37, 3-(1-Ethyl-6-(7-oxa-4-azaspiro[2.5]octan-4-yl)-1H-pyrazolo[4,3-c]pyridin-3-yl)-2,6-difluoro-5-(trifluoromethyl)phenol]",< 0.1 µM

# More lines, now with the values ahead:
row,IC50,Structure (SMILES)
1,< 0.1 µM,"C[C@@H]1CN(c2cc3c(cn2)c(-c2cc(C(F)(F)F)c(F)c(O)c2F)nn3C)CCN1C(=O)Nc1ccccc1 [Compound 21.07, (R)-4-(3-(2,4-Difluoro-3-hydroxy-5-(trifluoromethyl)phenyl)-1-methyl-1H-pyrazolo[4,3-c]pyridin-6-y1)-2-methyl-N-phenylpiperazine-1-carboxamide]"
2,< 0.1 µM,"CCOC1CCN(c2ncc3c(-c4cc(C(F)(F)F)c(F)c(O)c4F)nn(C)c3n2)CC1 [Compound 18.70, 3-(6-(4-Ethoxypiperidin-1-y1)-1-methyl-1H-pyrazolo[3,4-d]pyrimidin-3-y1)-2,6-difluoro-5-(trifluoromethyl)phenol]"
3,< 0.1 µM,"Cn1nc(-c2cc(C(F)(F)F)c(F)c(O)c2F)c2cnc(N3CCOCC3CO)nc21 (stereo not shown) [Compound 18.01, 2,6-Difluoro-3-(6-(3-(hydroxymethyl)morpholino)-1-methyl-1H-pyrazolo[3,4-d]pyrimidin-3-y1)-5-(trifluoromethyl)phenol]"
4,< 0.1 µM,"Cn1nccc1C1CN(c2ncc3c(-c4cc(C(F)(F)F)c(F)c(O)c4F)nn(C)c3n2)CCO1 (stereo not shown) [Compound 18.51, 2,6-Difluoro-3-(1-methyl-6-(2-(1-methyl-1H-pyrazol-5-yl)morpholino)-1H-pyrazolo[3,4-d]pyrimidin-3-y1)-5-(trifluoromethyl)phenol]"
5,0.1 to 1 µM,"CNC1CCN(c2ncc3c(-c4cc(C(F)(F)F)c(F)c(O)c4F)nn(C)c3n2)CC1 [Compound 18.29, 2,6-Difluoro-3-(1-methyl-6-(4-(methylamino)piperidin-1-yl)-1H-pyrazolo[3,4-d]pyrimidin-3-y1)-5-(trifluoromethyl)phenol]"
6,< 0.1 µM,"CC(=O)N(C)C1CCN(c2ncc3c(-c4cc(C(F)(F)F)c(F)c(O)c4F)nn(C)c3n2)CC1 [Compound 18.28, N-(1-(3-(2,4-Difluoro-3-hydroxy-5-(trifluoromethyl)phenyl)-1-methyl-1H-pyrazolo[3,4-d]pyrimidin-6-yl)piperidin-4-y1)-N-methylacetamide]"
7,< 0.1 µM,"C[C@@H]1CN(C(=O)c2ccccc2)CCN1c1ncc2c(-c3cc(C(F)(F)F)c(F)c(O)c3F)nn(C)c2n1 [Compound 18.120, (R)-(4-(3-(2,4-Difluoro-3-hydroxy-5-(trifluoromethyl)phenyl)-1-methyl-1H-pyrazolo[3,4-d]pyrimidin-6-yl)-3-methylpiperazin-1-y1)(phenyl)methanone]"
8,< 0.1 µM,"Cn1nc(-c2cc(C(F)(F)F)c(F)c(O)c2F)c2cnc(N3CCN(C(=O)Nc4ccccc4)CC3)cc21 [Compound 21.01, 4-(3-(2,4-Difluoro-3-hydroxy-5-(trifluoromethyl)phenyl)-1-methyl-1H-pyrazolo[4,3-c]pyridin-6-y1)-N-phenylpiperazine-1-carboxamide]"

# Same assay, conditions: at 30 uM compound; read-out: HSD17β13 % inhibition at 30 uM
row,inhibition at 30 µM,Structure (SMILES)
1,20%,"O=C(NC1CCC1)c1ccc2oc(-c3cc(O)cc(C(F)(F)F)c3F)nc2c1 [Compound 23, N-Cyclobuty1-2-(2-fluoro-5-hydroxy-3-(trifluoromethyl)phenyl)benzo[d] oxazole-5-carboxamide]"
